In this assay the target is T1, His-MBP-TEV-Full length human TNNI3K (hTNNI3K) (Homo sapiens, UniProt Q59H18).
T1 construct: His-MBP-TEV-Full length human TNNI3K (hTNNI3K); His (N); TEV cleavage site (N); made in house; host or cells: baculovirus system (printed 'Baculokinase system')
T1 sequence (Q59H18 1-835): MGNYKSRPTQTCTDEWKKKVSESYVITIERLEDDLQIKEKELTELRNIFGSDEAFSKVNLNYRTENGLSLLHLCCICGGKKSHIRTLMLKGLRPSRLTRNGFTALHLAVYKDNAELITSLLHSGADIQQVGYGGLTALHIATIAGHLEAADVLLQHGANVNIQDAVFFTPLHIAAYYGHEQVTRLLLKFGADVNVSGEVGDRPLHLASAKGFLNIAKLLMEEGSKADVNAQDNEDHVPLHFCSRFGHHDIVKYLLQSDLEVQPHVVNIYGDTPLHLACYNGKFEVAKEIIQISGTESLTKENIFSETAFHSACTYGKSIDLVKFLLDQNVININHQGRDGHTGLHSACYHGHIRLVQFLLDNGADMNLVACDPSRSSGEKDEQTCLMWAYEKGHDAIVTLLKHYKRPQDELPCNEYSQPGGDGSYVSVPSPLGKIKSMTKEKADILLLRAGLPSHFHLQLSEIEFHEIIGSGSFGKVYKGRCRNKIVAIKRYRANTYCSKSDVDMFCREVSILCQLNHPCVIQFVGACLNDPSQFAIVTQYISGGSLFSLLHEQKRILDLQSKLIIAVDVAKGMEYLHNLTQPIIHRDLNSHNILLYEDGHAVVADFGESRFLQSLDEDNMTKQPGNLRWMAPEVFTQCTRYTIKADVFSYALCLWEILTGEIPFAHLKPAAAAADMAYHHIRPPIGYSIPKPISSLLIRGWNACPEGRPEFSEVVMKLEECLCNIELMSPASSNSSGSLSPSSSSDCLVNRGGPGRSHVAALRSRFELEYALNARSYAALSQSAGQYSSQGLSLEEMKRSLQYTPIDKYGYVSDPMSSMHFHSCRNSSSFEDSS
Put plainly: Fluorescent polarization assay of compound inhibition on hTNNI3K ATP binding (Biological Assay Method I). As to conditions: displacement of fluorescent ligand, mean of a minimum of 2 experiments, read-out: mean pXC50 (converted). From the text: Materials: His-MBP-TEV-Full length human TNNI3K (hTNNI3K) was expressed in Baculokinase system and purified from amylase affinity column followed by Superdex200. The fluorescent ligand 5-({[2-({[3-({4-[(5-hydroxy-2-methylphenyl)amino]-2-pyrimidinyl}amino)phenyl]carbonyl}amino)ethyl]amino}carbonyl)-2-(6-hydroxy-3-oxo-3H-xanthen-9-yl)benzoic acid was used. The other buffer components, including MgCl2 (Catalog Number M1028), Bis-Tris (Catalog Number B7535), DTT (Catalog Number D9779) and Chaps (Catalog Number C3023) were purchased from Sigma-Aldrich.
A fluorescent polarization assay was used to determine does response of compound inhibition on hTNNI3K ATP binding. […]
Fifty (50) nL of inhibitors in DMSO (or DMSO controls) were stamped into a 384-well low volume Greiner black plate, followed by addition of 5 μL of Solution 1 to column 18 and 5 μL Solution 2 to columns 1-17 and 19-24 of the plate. […] After that, the fluorescent polarization was measured on Analyst (ex/em: 485/530 nm, Dichroic: 505). […]

Counter-ions that a name gives are not always drawn.

Turning to `CNc1cc(Oc2ccc(NC(=O)Nc3cccc(C(F)(F)F)c3)cc2F)ncn1` [Example 11, N-(3-fluoro-4-{[6-(methylamino)-4-pyrimidinyl]oxy}phenyl)-N′-[3-(trifluoromethyl)phenyl]urea trifluoroacetate], the IC50 was 25.1 nM.

Take `CNc1cc(Oc2c(C)cc(NC(=O)Nc3cccc(C(F)(F)F)c3)cc2C)ncn1` [Example 5, N-(3,5-dimethyl-4-{[6-(methylamino)-4-pyrimidinyl]oxy}phenyl)-N′-[3-(trifluoromethyl)phenyl]urea trifluoroacetate]: the IC50 was 25.1 nM.

(Values after US20120157482A1, “COMPOUNDS AND METHODS” (priority 2009, published 2012).)
